Data published in the supplement of paper PMC11451515.

Test system: SEM cells
Assay: cell viability relative to DMSO control; higher = less cytotoxic
Conditions: 48 h
In short: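 Viability values are per-plate percentages of DMSO wells, with background from cell-free wells. Library compounds in DMSO were pin-dosed, in an 11-point threefold series from 47 μM to 0.79 nM, onto NOMO1 or SEM (500 cells/well) or P12-Ichikawa (1000 cells/well) leukemia cells in 1536-well plates (5 μl). Those cells had been adapted for at least four passages in each medium, and CellTiter-Glo One luminescence was read after 48 h at 37°C.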

[1] = HPLM + 10% dialyzed FBS, 0.000781 µM
[2] = HPLM + 10% dialyzed FBS, 0.00234 µM
[3] = HPLM + 10% dialyzed FBS, 0.00702 µM
[4] = HPLM + 10% dialyzed FBS, 0.0211 µM
[5] = HPLM + 10% dialyzed FBS, 0.0632 µM
[6] = HPLM + 10% dialyzed FBS, 0.19 µM
[7] = HPLM + 10% dialyzed FBS, 0.569 µM
[8] = HPLM + 10% dialyzed FBS, 1.71 µM
[9] = HPLM + 10% dialyzed FBS, 5.12 µM
[10] = HPLM + 10% dialyzed FBS, 15.4 µM
[11] = HPLM + 10% dialyzed FBS, 46.1 µM
[12] = RPMI 5 mM glucose + 10% FBS, 0.000781 µM
[13] = RPMI 5 mM glucose + 10% FBS, 0.00234 µM
[14] = RPMI 5 mM glucose + 10% FBS, 0.00702 µM
[15] = RPMI 5 mM glucose + 10% FBS, 0.0211 µM
[16] = RPMI 5 mM glucose + 10% FBS, 0.0632 µM
[17] = RPMI 5 mM glucose + 10% FBS, 0.19 µM
[18] = RPMI 5 mM glucose + 10% FBS, 0.569 µM
[19] = RPMI 5 mM glucose + 10% FBS, 1.71 µM
[20] = RPMI 5 mM glucose + 10% FBS, 5.12 µM
[21] = RPMI 5 mM glucose + 10% FBS, 15.4 µM
[22] = RPMI 5 mM glucose + 10% FBS, 46.1 µM
[23] = RPMI 5 mM glucose + 10% dialyzed FBS, 0.000781 µM
[24] = RPMI 5 mM glucose + 10% dialyzed FBS, 0.00234 µM
[25] = RPMI 5 mM glucose + 10% dialyzed FBS, 0.00702 µM
[26] = RPMI 5 mM glucose + 10% dialyzed FBS, 0.0211 µM
[27] = RPMI 5 mM glucose + 10% dialyzed FBS, 0.0632 µM
[28] = RPMI 5 mM glucose + 10% dialyzed FBS, 0.19 µM
[29] = RPMI 5 mM glucose + 10% dialyzed FBS, 0.569 µM
[30] = RPMI 5 mM glucose + 10% dialyzed FBS, 1.71 µM
[31] = RPMI 5 mM glucose + 10% dialyzed FBS, 5.12 µM
[32] = RPMI 5 mM glucose + 10% dialyzed FBS, 15.4 µM
[33] = RPMI 5 mM glucose + 10% dialyzed FBS, 46.1 µM

Compound	cell viability [1] [%]	cell viability [2] [%]	cell viability [3] [%]	cell viability [4] [%]	cell viability [5] [%]	cell viability [6] [%]	cell viability [7] [%]	cell viability [8] [%]	cell viability [9] [%]	cell viability [10] [%]	cell viability [11] [%]	cell viability [12] [%]	cell viability [13] [%]	cell viability [14] [%]	cell viability [15] [%]	cell viability [16] [%]	cell viability [17] [%]	cell viability [18] [%]	cell viability [19] [%]	cell viability [20] [%]	cell viability [21] [%]	cell viability [22] [%]	cell viability [23] [%]	cell viability [24] [%]	cell viability [25] [%]	cell viability [26] [%]	cell viability [27] [%]	cell viability [28] [%]	cell viability [29] [%]	cell viability [30] [%]	cell viability [31] [%]	cell viability [32] [%]	cell viability [33] [%]
COc1ncnc(N[S+](=O)([O-])c2ccc(N)cc2)c1OC	33.3	74	64.9	77.8	96.9	75.1	77.2	46.8	11.4	5.63	6.09	46	102	82.5	96.4	101	88.3	59.3	44	6.03	4.36	5.06	39.2	96.9	79.2	114	118	92.6	86.1	50.4	17.9	8.47	8.64
CN(C)CC[C@H](c1ccc(Cl)cc1)c1ccccn1	70.8	72.6	79.4	78.8	86.1	73.7	82.2	75.2	89.5	83.8	72.3	80.6	74.3	91	92.4	88.6	95.3	100	87.2	101	92.7	101	78.9	83.4	82.4	86	87.1	95.4	80.5	87.3	104	93.2	75.1
COC1=CC=C(C=C1O)C/2=C/C(=O)C3=C(O2)C=C(O)C=C3O	98	89.5	85.9	95.2	98.4	97.9	92.4	93.7	79.6	65.7	60.6	103	95.4	113	94.3	106	113	110	113	94.8	87.9	63.7	97.6	94.8	105	104	102	87.7	111	119	101	81.3	56.8
COc1cccc([C@@H](C)NCCCc2ccccc2Cl)c1	88.5	90.3	95.2	105	106	95.8	81.8	97.6	107	96.3	101	82.6	100	79.9	100	94	94.9	84.2	78.7	97.4	100	93.5	81.2	112	92	101	94	114	97.2	95.1	98.6	108	99.6
N#Cc1ccnc(Nc2cc(C3CCN(C4COC4)CC3)cc(N3CCC(F)(F)C3)n2)c1	96.4	97.9	91.6	110	110	104	109	103	102	35.3	10.2	107	127	125	128	123	110	131	112	100	43.7	8.66	103	110	97.8	111	121	101	110	106	85.5	25.5	9.03
CCN(C(=O)C/1=C(O)/C2=C(C=CC=C2Cl)N(C)C1=O)C3=CC=CC=C3	79.9	92.1	99.3	93.5	84.6	61.8	62	25.8	9.79	3.62	3.31	88.2	90.7	99.6	97.6	89.5	43	53.8	14.4	5.29	3.41	3.37	93.1	80.1	85.4	97.8	80.2	42.8	49.6	26.9	6.32	3.84	3.31
CC(C)c1ccc(Cn2ccc3c4c(N)nc(NC5CC5)nc4ccc32)cc1	99.5	100	113	100	113	107	67.6	53.2	37.5	31.9	6.32	107	114	120	80.5	106	120	102	110	35.5	19.5	8.49	97.7	113	123	80.5	125	124	134	119	46.7	33.3	9.93
CN1\N=C(N)/C2=C[N]([C@@H]3O[C@H](CO[P](O)(O)=O)[C@@H](O)[C@H]3O)C4=C2C1=NC=N4	77.9	79.8	42.7	45.6	38	25.8	13.2	8.14	4.15	2.69	2.9	107	109	63.8	65.2	50.3	35.3	16.7	7.7	6.79	3.71	3.23	88.7	76	40	38.9	21.1	13.4	8.31	6.58	4.28	3.22	2.94
C[C@H]1[C@@H](C(=O)C[C@H]2O[C@@H]3O[C@]4(C)CC[C@H]5[C@H](C)CC[C@@H]([C@H]2C)[C@@]35OO4)O[C@@H]2O[C@]3(C)CC[C@H]4[C@H](C)CC[C@@H]1[C@@]24OO3	92.6	106	95.1	83.9	102	84.1	84.6	91.5	89	75.4	6.82	87.2	112	116	109	113	107	105	96.8	72.1	53.1	5.74	96.3	114	115	99.7	113	109	116	96.9	92.9	75	7.69
[O-]C(=O)C1=C(C(=C(Cl)C(=C1Cl)Cl)Cl)C/2=C/3\C=C(I)/C(=O)/C(=C3OC4=C2C=C(I)C(=C4I)[O-])I	111	106	122	106	118	111	120	116	106	109	73	108	121	130	133	134	113	115	130	114	109	83.2											
CC1(N2CCC(n3c([C@@H]4CCCNC4)nc4ccccc43)CC2)CCCCCCC1	76.6	88.6	99.7	105	105	89.3	103	96	92.5	72.2	42.4	99.3	87.8	105	119	121	107	119	116	109	96.6	87.3	103	78.8	98.7	111	106	95.7	117	113	130	77.3	87.6
NC(=O)c1cccc2cn(-c3ccc([C@@H]4CCCNC4)cc3)nc12	86.9	90.8	105	126	129	98.9	112	116	91.8	63.8	50	97.8	111	113	110	102	92.8	119	113	120	80.1	32.5	94.3	80.8	93.4	106	104	90	109	124	94.6	66.4	44.4
COC(=O)C1C2CC3c4[nH]c5cc(OC)ccc5c4CCN3CC2CC(OC(=O)c2cc(OC)c(OC)c(OC)c2)C1OC (centres undefined)	116	120	119	125	130	119	141	115	116	117	105	97.2	120	102	107	113	102	104	112	94.8	85.2	91.4	116	110	113	105	104	134	124	135	128	82.1	86.6
COC1=C2C[C@@H](C)C[C@H](OC)[C@H](O)[C@@H](C)/C=C(\C)[C@H](OC(N)=O)[C@@H](OC)/C=C/C=C(\C)C(=O)NC(=CC1=O)C2=O	122	115	125	127	117	123	101	115	100	6.39	5.09												110	105	102	108	97.2	95.8	99.7	114	72.2	5.54	4.75
CC[C@H](NC(=O)[C@H](C)NC)C(=O)N1C[C@@H](O)C[C@H]1Cc1c(-c2[nH]c3cc(F)ccc3c2C[C@@H]2C[C@H](O)CN2C(=O)[C@H](CC)NC(=O)[C@H](C)NC)[nH]c2cc(F)ccc12	90.7	122	116	116	136	134	129	134	112	119	88.2																						
ClC1=CC\2=C(OC3=C(C=CC=C3)\N=C2N4CCNCC4)C=C1	110	90.9	114	108	117	116	112	105	119	95.2	89	94.5	49.6	95	90.4	94.1	93.3	103	99.7	104	89.3	86.8	104	80.1	113	106	117	105	111	107	119	103	91
